According to patent US10233146B2, “Acetylenic cyanoenones as therapeutics for inflammation and carcinogenesis” (THE RESEARCH FOUNDATION FOR THE STATE UNIVERSITY OF NEW YORK, priority 2015, dated 2019):
Values joined by “and” are separate entries in the source; they are usually repeats but may differ in a detail not shown here. Equal values may be shown once. “Also recorded” adds a separate entry of the source.

Test system: not listed separately
Test: UV study of Michael adduct formation with DTT
Format: physicochemical
Conditions: 0.1 mM compound, 0.1 mM DTT, phosphate buffer saline-1% ethanol (pH 7.4), rt
Protocol: Calculation of Approximate Equilibrium Constant (K)
The concentrations of 3, with initial concentration of 0.1 mM, and DTT, with initial concentration of 0.1 mM, in the phosphate buffer are calculated to be 0.0855 mM as follows: (1) The absorbance (A) is 0.956 at 0.1 mM concentration of 3 in deionized water. (2) The A of 3 is 0.817 in the phosphate buffer. (3) The concentrations of 3 and DTT in the buffer are calculated to be 0.0855 mM based on (1) and (2). From these concentrations, the approximate K is calculated as follows: K=[Adduct]/[3]×[DTT]=0.0145×10^−3/[…]=2.0×10^3 (Liters/mol).
Unfortunately, since the λmax of 4-8 was not observed due to the overlapping, we can't calculate the concentrations of the adducts of 4-8 by the same method as for 3. However, since we can speculate that the ε of the adducts of 4-8 is almost similar to that of the adduct of 2, we can calculate the concentrations of the adducts of 4-8 based on the A (0.227 at 0.0145 mM) of the adduct of […] and the A of the adducts of 4-8. For example, the concentration of the adduct of 5 is 0.0145×0.369 (A of the adduct of 5)/0.227=0.0235 (mM). Therefore, the concentrations of 5 and DTT are 0.0765 (mM/each). Thus, K of 5=0.0235×10^−3/0.0765×0.0765×10^−6=4.0×10^3 (Liters/mol). The K of 4 and 6-8 are also calculated using the A (0.227 at 0.0145 mM) of the adduct of 3 and the A of the adducts of 4 and 6-8, respectively.
Chemical reactivity of monocyclic, bicyclic, and tricyclic compounds 4-15 as Michael acceptors was evaluated using UV spectroscopy.
Michael reaction between ethynylcyanodienones with DTT give adducts IV (Scheme 11). Since adducts IV have different UV absorption spectra (λmax 330-380 nm) from those of the corresponding ethynylcyanodienones (λmax 230-320 nm), UV spectroscopy can clarify whether or not the Michael adducts are produced.^6
(§1) 1. UV Studies on Monocyclic and Bicyclic Compounds 4-9 with DTT Compounds 5-8 with DTT gave similar UV spectra to those of 3 (Taylor, S. K. et al. 1988). Compounds 5-8 have local maximum absorptions at 332-338 nm upon the addition of DTT (1 and 10 equiv) under dilute (0.1 mM of the compounds) and neutral aqueous conditions (pH 7.4 phosphate buffered saline-1% ethanol containing 1 mM KH2PO4, 5.6 mM Na2HPO4, and 154 mM NaCl) (Table 1 and FIG. 2). Also, these compounds react with a chloride anion (a much weaker nucleophile than a sulfhydryl group of DTT), which is contained in the buffer solution, to give Michael adducts whose local maximum absorptions are observed at 320-326 nm.
We have calculated approximate equilibrium constants (K) of these Michael reactions in the solutions of 5-8 with DTT (each initial concentration, 0.1 mM. See the calculation of the equilibrium constants in the Supporting Information). The values of K are approximately 1.0-4.2×10^3 (L/mol), implying that these additions are very strongly favored.
Tricyclic compounds 10-15 react with DTT to give the adducts whose local maximum absorptions are observed at 374-383 nm range (Table 1 and FIG. 2). […] Among phenanthrene derivatives, substitutents at C5 decrease the reactivity.

| A (absorbance) With DTT (1 equiv) | λmax With DTT (1 equiv) | SMILES |
| --- | --- | --- |
| shoulder | 380 nm | C#CC12C=C(C#N)C(=O)C=C1c1c(Cl)cccc1CC2 (centres unmarked) [Compound 11, 5-Chloro-10a-ethynyl-3-oxo-3,9,10,10a-tetrahydrophenanthrene-2-carbonitrile] |
| 0.848 | 331 nm | C#CC1(C)C=C(C#N)C(=O)c2ccccc21 (centres unmarked) [Compound 9, 4-Ethynyl-4-methyl-1-oxo-1,4-dihydronaphthalene-2-carbonitrile] |
| shoulder | 380 nm | C#CC12C=C(C#N)C(=O)C=C1c1ccccc1CC2 (centres unmarked) [Compound 10, 10a-Ethynyl-3-oxo-3,9,10,10a-tetrahydrophenanthrene-2-carbonitrile] |

The remaining lines, values behind:

| SMILES | A (absorbance) With DTT (1 equiv) | λmax With DTT (1 equiv) |
| --- | --- | --- |
| C#CC1(C#C)C=CC(=O)C(C#N)=C1 [Compound 4, 3,3-Diethynyl-6-oxocyclohexa-1,4-dienecarbonitrile] | 0.614 | 330 nm |
| C#CC12C=C(C#N)C(=O)C=C1CCC2 (centres unmarked) [Compound 7, 3a-Ethynyl-6-oxo-2,3,3a,6-tetrahydro-1H-indene-5-carbonitrile] | 0.281 | 333 nm |
| C#CC1(CC)C=CC(=O)C(C#N)=C1 (centres unmarked) [Compound 6, 3-Ethyl-3-ethynyl-6-oxocyclohexa-1,4-dienecarbonitrile] | 0.135 | 332 nm |
| C#CC12C=C(C#N)C(=O)C=C1c1ccccc1C2 (centres unmarked) [Compound 14, 9a-Ethynyl-3-oxo-9,9a-dihydro-3H-fluorene-2-carbonitrile] | 0.808 | 377 nm |

Same assay, conditions: 0.1 mM compound, 1 mM DTT, phosphate buffer saline-1% ethanol (pH 7.4), rt

| A (absorbance) With DTT (10 equiv) | λmax With DTT (10 equiv) | SMILES |
| --- | --- | --- |
| 0.262 | 380 nm | C#CC12C=C(C#N)C(=O)C=C1c1c(Cl)cccc1CC2 (centres unmarked) [Compound 11, 5-Chloro-10a-ethynyl-3-oxo-3,9,10,10a-tetrahydrophenanthrene-2-carbonitrile] |
| 0.872 | 333 nm | C#CC1(C)C=C(C#N)C(=O)c2ccccc21 (centres unmarked) [Compound 9, 4-Ethynyl-4-methyl-1-oxo-1,4-dihydronaphthalene-2-carbonitrile] |
| 0.723 | 382 nm | C#CC12C=C(C#N)C(=O)C=C1c1ccccc1CC2 (centres unmarked) [Compound 10, 10a-Ethynyl-3-oxo-3,9,10,10a-tetrahydrophenanthrene-2-carbonitrile] |

Second part, the molecule before the results:

| SMILES | A (absorbance) With DTT (10 equiv) | λmax With DTT (10 equiv) |
| --- | --- | --- |
| C#CC1(C#C)C=CC(=O)C(C#N)=C1 [Compound 4, 3,3-Diethynyl-6-oxocyclohexa-1,4-dienecarbonitrile] | 0.510 and 0.439 | 333 nm and 250 nm |
| C#CC12C=C(C#N)C(=O)C=C1CCC2 (centres unmarked) [Compound 7, 3a-Ethynyl-6-oxo-2,3,3a,6-tetrahydro-1H-indene-5-carbonitrile] | 0.355 | 337 nm |
| C#CC1(CC)C=CC(=O)C(C#N)=C1 (centres unmarked) [Compound 6, 3-Ethyl-3-ethynyl-6-oxocyclohexa-1,4-dienecarbonitrile] | 0.353 | 335 nm |
| C#CC12C=C(C#N)C(=O)C=C1c1ccccc1C2 (centres unmarked) [Compound 14, 9a-Ethynyl-3-oxo-9,9a-dihydro-3H-fluorene-2-carbonitrile] | 0.820 | 382 nm |

Same assay, conditions: 0.1 mM of compound with 0.1 mM of DTT

| SMILES | K (equilibrium constant) |
| --- | --- |
| C#CC1(C#C)C=CC(=O)C(C#N)=C1 [Compound 4, 3,3-Diethynyl-6-oxocyclohexa-1,4-dienecarbonitrile] | 10600 L/mol |
| C#CC12C=C(C#N)C(=O)C=C1CCC2 (centres unmarked) [Compound 7, 3a-Ethynyl-6-oxo-2,3,3a,6-tetrahydro-1H-indene-5-carbonitrile] | 2700 L/mol |
| C#CC1(CC)C=CC(=O)C(C#N)=C1 (centres unmarked) [Compound 6, 3-Ethyl-3-ethynyl-6-oxocyclohexa-1,4-dienecarbonitrile] | 1000 L/mol |

Same assay, conditions: each initial concentration 0.1 mM

| SMILES | approximate equilibrium constant K of Michael reaction with DTT |
| --- | --- |
| C#CC1(C#C)C=CC(=O)C(C#N)=C1 [Compound 4, 3,3-Diethynyl-6-oxocyclohexa-1,4-dienecarbonitrile] | ~10600 L/mol |

Test system: not given
Test: not given
Conditions: not given

| SMILES | melting point |
| --- | --- |
| C#CC1(C#C)C=CC(=O)C(C#N)=C1 [Compound 4, 3,3-Diethynyl-6-oxocyclohexa-1,4-dienecarbonitrile] | 110 to 111 °C |
| C#CC12C=C(C#N)C(=O)C=C1CCC2 (centres unmarked) [Compound 7, 3a-Ethynyl-6-oxo-2,3,3a,6-tetrahydro-1H-indene-5-carbonitrile] | 107 to 108 °C |
| C#CC1(CC)C=CC(=O)C(C#N)=C1 (centres unmarked) [Compound 6, 3-Ethyl-3-ethynyl-6-oxocyclohexa-1,4-dienecarbonitrile] | 73 to 75 °C |
| C#CC12C=C(C#N)C(=O)C=C1c1c(Cl)cccc1CC2 (centres unmarked) [Compound 11, 5-Chloro-10a-ethynyl-3-oxo-3,9,10,10a-tetrahydrophenanthrene-2-carbonitrile] | > 230 °C |
| C#CC12C=C(C#N)C(=O)C=C1c1ccccc1C2 (centres unmarked) [Compound 14, 9a-Ethynyl-3-oxo-9,9a-dihydro-3H-fluorene-2-carbonitrile] | 202 to 203 °C |
| C#CC12C=C(C#N)C(=O)C=C1c1ccccc1CC2 (centres unmarked) [Compound 10, 10a-Ethynyl-3-oxo-3,9,10,10a-tetrahydrophenanthrene-2-carbonitrile] | 209.5 to 211 °C |

Test system: not listed separately
Test: UV study of Michael adduct formation with chloride anion of the buffer (without DTT)
Format: physicochemical
Conditions: 0.1 mM compound, phosphate buffer saline-1% ethanol (pH 7.4)
Protocol: as §1, with “nm. […]” for “nm.”

| SMILES | A (absorbance) Without DTT (With Cl^—) | λmax Without DTT (With Cl^—) |
| --- | --- | --- |
| C#CC1(C#C)C=CC(=O)C(C#N)=C1 [Compound 4, 3,3-Diethynyl-6-oxocyclohexa-1,4-dienecarbonitrile] | 0.635 | 328 nm |
| C#CC12C=C(C#N)C(=O)C=C1CCC2 (centres unmarked) [Compound 7, 3a-Ethynyl-6-oxo-2,3,3a,6-tetrahydro-1H-indene-5-carbonitrile] | 0.151 | 324 nm |
| C#CC1(CC)C=CC(=O)C(C#N)=C1 (centres unmarked) [Compound 6, 3-Ethyl-3-ethynyl-6-oxocyclohexa-1,4-dienecarbonitrile] | 0.036 | 320 nm |
| C#CC12C=C(C#N)C(=O)C=C1c1ccccc1C2 (centres unmarked) [Compound 14, 9a-Ethynyl-3-oxo-9,9a-dihydro-3H-fluorene-2-carbonitrile] | 0.867 | 364 nm |
| C#CC1(C)C=C(C#N)C(=O)c2ccccc21 (centres unmarked) [Compound 9, 4-Ethynyl-4-methyl-1-oxo-1,4-dihydronaphthalene-2-carbonitrile] | 0.831 | 321 nm |

Test system: iNOS
Test: not given
Conditions: not given

| SMILES | IC50 |
| --- | --- |
| C#CC1(C#C)C=CC(=O)C(C#N)=C1 [Compound 4, 3,3-Diethynyl-6-oxocyclohexa-1,4-dienecarbonitrile] | 210 nM |
| C#CC12C=C(C#N)C(=O)C=C1CCC2 (centres unmarked) [Compound 7, 3a-Ethynyl-6-oxo-2,3,3a,6-tetrahydro-1H-indene-5-carbonitrile] | 160 nM |
| C#CC12C=C(C#N)C(=O)C=C1c1ccccc1C2 (centres unmarked) [Compound 14, 9a-Ethynyl-3-oxo-9,9a-dihydro-3H-fluorene-2-carbonitrile] | 480 nM |

Test system: NQO1
Test: Induction of NQO1 in Hepa1c1c7 murine hepatoma cells
Format: cell-based
Conditions: FIG. 3, concentrations higher than the CD values
Source text: In this assay, the concentration required to double (CD value) the specific enzyme activity of NQO1 is used to quantify inducer potency. […] Dinkova-KOstova, A. T. et al. 2012). […] These compounds may be more robust inducers than monocyclic compounds. [table]

| SMILES | magnitude of NQO1 induction at higher concentrations |
| --- | --- |
| C#CC12C=C(C#N)C(=O)C=C1CCC2 (centres unmarked) [Compound 7, 3a-Ethynyl-6-oxo-2,3,3a,6-tetrahydro-1H-indene-5-carbonitrile] | induce NQO1 more effectively than monocyclic compounds 3-6 |
| C#CC12C=C(C#N)C(=O)C=C1c1c(Cl)cccc1CC2 (centres unmarked) [Compound 11, 5-Chloro-10a-ethynyl-3-oxo-3,9,10,10a-tetrahydrophenanthrene-2-carbonitrile] | induce NQO1 more effectively than monocyclic compounds 3-6 |
| C#CC12C=C(C#N)C(=O)C=C1c1ccccc1C2 (centres unmarked) [Compound 14, 9a-Ethynyl-3-oxo-9,9a-dihydro-3H-fluorene-2-carbonitrile] | induce NQO1 more effectively than monocyclic compounds 3-6; also recorded: induces NQO1 to a greater magnitude than 3 and 5 |
| C#CC12C=C(C#N)C(=O)C=C1c1ccccc1CC2 (centres unmarked) [Compound 10, 10a-Ethynyl-3-oxo-3,9,10,10a-tetrahydrophenanthrene-2-carbonitrile] | induce NQO1 more effectively than monocyclic compounds 3-6 |

Same assay, conditions: Mus musculus, Hepa-1c1c7; Hepa1c1c7 cells, 48 h treatment; read-out: NQO1 CD (concentration required to double the specific enzyme activity of NQO1)

| SMILES | EC (2-fold NQO1 activity) |
| --- | --- |
| C#CC1(C#C)C=CC(=O)C(C#N)=C1 [Compound 4, 3,3-Diethynyl-6-oxocyclohexa-1,4-dienecarbonitrile] | 0.18 µM |
| C#CC12C=C(C#N)C(=O)C=C1CCC2 (centres unmarked) [Compound 7, 3a-Ethynyl-6-oxo-2,3,3a,6-tetrahydro-1H-indene-5-carbonitrile] | 0.056 µM |
| C#CC1(CC)C=CC(=O)C(C#N)=C1 (centres unmarked) [Compound 6, 3-Ethyl-3-ethynyl-6-oxocyclohexa-1,4-dienecarbonitrile] | 0.042 µM |
| C#CC12C=C(C#N)C(=O)C=C1c1c(Cl)cccc1CC2 (centres unmarked) [Compound 11, 5-Chloro-10a-ethynyl-3-oxo-3,9,10,10a-tetrahydrophenanthrene-2-carbonitrile] | 0.9 µM |
| C#CC12C=C(C#N)C(=O)C=C1c1ccccc1C2 (centres unmarked) [Compound 14, 9a-Ethynyl-3-oxo-9,9a-dihydro-3H-fluorene-2-carbonitrile] | 0.041 µM |
| C#CC1(C)C=C(C#N)C(=O)c2ccccc21 (centres unmarked) [Compound 9, 4-Ethynyl-4-methyl-1-oxo-1,4-dihydronaphthalene-2-carbonitrile] | 0.22 µM |
| C#CC12C=C(C#N)C(=O)C=C1c1ccccc1CC2 (centres unmarked) [Compound 10, 10a-Ethynyl-3-oxo-3,9,10,10a-tetrahydrophenanthrene-2-carbonitrile] | 0.15 µM |
